Source: patent US20050267182A1, “Urea derivatives as FLT-3 modulators” (Ambit Biosciences Corporation, priority 2003, published 2005)

Experiments:
CS0002 = assay: Cell Assay: CS0002; format: cell-based; details: cell assay code CS0002
FLT3 = biological target: T1, FLT3 (Homo sapiens, UniProt P36888); assay: Binding constant (Kd) measurement, phage-displayed kinase competition binding assay; details: for Binding Assay: FLT3(DKIN): FLT3(DKIN) construct; for Binding Assay: FLT3(JMminus): FLT3(JMminus) construct; for Binding Assay: FLT3(JMplus): FLT3(JMplus) construct
T1 construct: FLT3(DKIN); made in house
T1 sequence (P36888 610-943 limits assumed): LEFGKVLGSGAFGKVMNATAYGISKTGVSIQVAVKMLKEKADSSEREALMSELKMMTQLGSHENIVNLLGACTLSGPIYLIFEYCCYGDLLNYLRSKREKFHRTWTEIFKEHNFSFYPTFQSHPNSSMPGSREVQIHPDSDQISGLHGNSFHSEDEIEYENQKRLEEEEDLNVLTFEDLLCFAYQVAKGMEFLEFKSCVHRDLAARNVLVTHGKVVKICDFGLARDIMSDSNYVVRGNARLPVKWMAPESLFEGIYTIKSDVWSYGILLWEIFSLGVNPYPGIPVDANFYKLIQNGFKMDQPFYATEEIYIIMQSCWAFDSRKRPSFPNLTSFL
Excerpt: Binding Constant (Kd) Measurements for Small-Molecule-Kinase Interactions
The term “ND” represents non-determined values.

MV4,11 cells = assay: FLT3 assay using MV4,11 cells (cellular proliferation, MTS); format: cell-based, human; details: cell assay code CS0001
Outline: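 MV4,11 AML cells, […] switch to DMEM/10% FBS overnight, plated at 10,000 cells/well and exposed to serially diluted compounds in duplicate for 3 days at 37° C., 5% CO2. Proliferation read by MTS added for 2 h.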

CS0005 = assay: Cell Assay: CS0005; format: cell-based; details: cell assay code CS0005

Cell Assay: CS0002:IC50 (CS0002) | Binding Assay: FLT3(DKIN) (FLT3) | Cell Assay: CS0001:IC50 (MV4,11 cells) | Cell Assay: CS0005:IC50 (CS0005) | Binding Assay: FLT3(JMminus) (FLT3) | IC50 (CS0002) | Binding Assay: FLT3(JMplus) (FLT3) | SMILES
+ + + | + + + + | + + + + | + + + + |  |  |  | CC(C)(C)c1cc(NC(=O)Nc2ccc(NC(=O)c3cc4cc(Br)ccc4s3)cc2)no1 [Compound N126]
 | + + + + | + + + + | + + + + |  | > 10 µM |  | CC(C)(C)c1cc(NC(=O)Nc2ccc(NC(=O)c3ccc4ncccc4c3)cc2)no1 [Compound N151]
 |  | + + + + | + + + + | + + + + | > 10 µM |  | CC(C)(C)c1cc(NC(=O)Nc2ccc(C(=O)Nc3nccnc3N)cc2)no1 [Compound N157]
+ + | + + + + | + + + + | + + + + | + + + + |  | + + + | CC(C)(C)c1cc(NC(=O)Nc2ccc(NC(=O)c3ncccc3O)cc2)no1 [Compound N134]
+ + | + + + + | + + + + | + + + + |  |  |  | CC(C)(C)c1cc(NC(=O)Nc2ccc(Nc3nc(Cl)nc4[nH]cnc34)cc2)no1 [Compound O4]
 |  | + + + + | + + + + | + + + + | > 10 µM |  | Cc1cnc(C(=O)Nc2ccc(NC(=O)Nc3cc(C(C)(C)C)on3)cc2)c(C(=O)O)n1 [Compound N160]
 | + + + + | + + + + | + + + + |  | > 10 µM |  | CC(C)(C)c1cc(NC(=O)Nc2ccc(Nc3nc(N)nc4[nH]cnc34)cc2)no1 [Compound O6]
+ + | + + + + | + + + + | + + + + |  |  |  | CC(C)(C)c1cc(NC(=O)Nc2ccc(NC(=O)c3ccc4ccccc4n3)cc2)no1 [Compound N143]
+ + |  | + + + + | + + + + | + + + + |  |  | Cc1ccc2[nH]c(C(=O)Nc3ccc(NC(=O)Nc4cc(C(C)(C)C)on4)cc3)cc2c1 [Compound N127]
 | + + + + | + + + + | + + + + | + + + + | > 10 µM | + + + | CC(C)(C)c1cc(NC(=O)Nc2ccc(NC(=O)c3ccccn3)cc2)no1 [Compound N188]
+ + | + + + + | + + + + | + + + + |  |  |  | COc1cc2ncnc(Nc3ccc(NC(=O)Nc4cc(C(C)(C)C)on4)cc3)c2cc1OC [Compound O5]

More lines, now with the values behind:

SMILES | Cell Assay: CS0002:IC50 (CS0002) | Binding Assay: FLT3(DKIN) (FLT3) | Cell Assay: CS0001:IC50 (MV4,11 cells) | Cell Assay: CS0005:IC50 (CS0005) | Binding Assay: FLT3(JMminus) (FLT3) | IC50 (CS0002) | Binding Assay: FLT3(JMplus) (FLT3)
Cn1nc(-c2ccccc2)c2cc(C(=O)Nc3ccc(NC(=O)Nc4cc(C(C)(C)C)on4)cc3)sc21 [Compound N5] | + + + | + + + + | + + + + | + + + + |  |  | 
CC(C)(C)c1cc(NC(=O)Nc2ccc(CCc3ccc(N)cc3)cc2)no1 [Compound A3] | + + | + + + + | + + + + | + + + + |  |  | 
C=N/C(=N\C)Oc1cccc(C(=O)Nc2ccc(NC(=O)Nc3cc(C(C)(C)C)on3)cc2)c1 [Compound N74] | + + |  | + + + + | + + + + | + + + + |  | 
COc1ccnc(Nc2ccc(C(=O)Nc3ccc(NC(=O)Nc4cc(C(C)(C)C)on4)cc3)cc2)n1 [Compound N51] | + + | + + + + | + + + + | + + + + |  |  | 
CC(C)(C)c1cc(NC(=O)Nc2ccc(NC(=O)c3cc4cccc5c4n(c3=O)CC5)cc2)no1 [Compound N60] |  | + + + + | + + + + | + + + + |  | > 10 µM | 
CC(C)(C)c1cc(NC(=O)Nc2ccc(NC(=O)CSCC(=O)Nc3ccccc3)cc2)no1 [Compound N72] | + + |  | + + + + | + + + + | + + + + |  | 
CC(C)(C)c1cc(NC(=O)Nc2ccc(NC(=O)c3cscn3)cc2)no1 [Compound N57] |  | + + + + | + + + + | + + + + |  | > 10 µM | 
CC(C)(C)c1cc(NC(=O)Nc2ccc(CCc3ccccc3)cc2)no1 [Compound A15] | + + | + + + + | + + + + | + + + |  |  | 
CC(C)(C)c1cc(NC(=O)Nc2ccc(NC(=O)c3cccc4nsnc34)cc2)no1 [Compound N109] |  | + + + + | + + + + | + + + |  | > 10 µM | 
CC(C)(C)c1cc(NC(=O)Nc2ccc(NC(=O)c3ccc4sccc4c3)cc2)no1 [Compound N122] |  | + + + + | + + + + | + + + + |  | > 10 µM | 
CC(C)(C)c1cc(NC(=O)Nc2ccc(NC(=O)c3cccc(F)n3)cc2)no1 [Compound N8] |  | + + + + | + + + + | + + + + |  | > 10 µM | 
CC(C)(C)c1cc(NC(=O)Nc2ccc(NC(=O)c3cccc4cccnc34)cc2)no1 [Compound N115] | + + + | + + + + | + + + + | + + + + |  |  | 
CC(C)(C)c1cc(NC(=O)Nc2ccc(OCc3ccc(F)cc3)cc2)no1 [Compound G35] |  | + + + + | + + + + | + + + |  | > 10 µM | 
CC(C)(C)c1cc(NC(=O)Nc2ccc(C(=O)Nc3ccc(OCC4CCC4)cc3)cc2)no1 [Compound N100] | + + | + + + + | + + + + | + + + + |  | > 10 µM | 
CC(C)(C)c1cc(NC(=O)Nc2ccc(OCC3CC3)cc2)no1 [Compound G37] | + + | + + + + | + + + + | + + + |  |  | 
CC(C)(C)c1cc(NC(=O)Nc2ccc(OCc3ccccc3Cl)cc2)no1 [Compound G10] | + + | + + + + | + + + + | + + + |  |  | 
CC(C)(C)c1cc(NC(=O)Nc2ccc(NC(=O)c3cn4nc(Cl)ccc4n3)cc2)no1 [Compound N9] | + + | + + + + | + + + + | + + + + |  |  | 
CC(C)(C)c1cc(NC(=O)Nc2ccc(NC(=O)c3cc4ccccc4cn3)cc2)no1 [Compound N106] |  |  |  | + + + + |  | > 10 µM | 
